The assay has as its system CD2F1 mice, intracerebral P388 leukemia, median survival T/C%. Description: NCI In Vivo Anticancer Drug Screen. Data for tumor model P388 Leukemia (intracerebral) in CD2F1 (CDF1) mice. The note with it: endpoint: median survival time, higher = longer survival. The procedure:
The antitumor activity of compounds was measured in mice bearing transplantable tumors. Survival or tumor size were measured and the results are expressed as the measurement made in the treated group (T) divided by the measurement made in the vehicle treated control group (C). The tumor model used in this assay is P388 Leukemia (intracerebral) in CD2F1 (CDF1) mice

[1] abbreviates: dose: 12.5 mg/kg/injection, schedule: Q01DX009 (ip), vehicle: saline.
Where [2] appears, read: dose: 25.0 mg/kg/injection, schedule: Q01DX009 (ip), vehicle: saline.
[3] abbreviates: dose: 50.0 mg/kg/injection, schedule: Q01DX009 (ip), vehicle: saline.
Where [4] appears, read: dose: 100.0 mg/kg/injection, schedule: Q01DX009 (ip), vehicle: saline.
Setting [5] is: dose: 8.0 mg/kg/injection, schedule: Q01DX009 (ip), vehicle: saline.

Values joined by “and” are separate entries in the source; they are usually repeats but may differ in a detail not shown here. Equal values may be shown once. Inconclusive results and toxic doses are left out.

In the case of `CCCCCc1cc(O)c2c(c1)OC(C)(C)[C@@H]1CCC(C)=C[C@@H]21`, the T/C runs as follows: (dose: 2.75 mg/kg/injection, schedule: Q01DX005 (iv), vehicle: other) 105 % of control; (dose: 5.5 mg/kg/injection, schedule: Q01DX005 (iv), vehicle: other) 101 % of control; (dose: 11.0 mg/kg/injection, schedule: Q01DX005 (iv), vehicle: other) 103 % of control; (dose: 22.0 mg/kg/injection, schedule: Q01DX005 (iv), vehicle: other) 104 % of control; (dose: 44.0 mg/kg/injection, schedule: Q01DX005 (iv), vehicle: other) 101 % of control.

With `CC[C@H]1CN2CCc3cc(OC)c(OC)cc3[C@@H]2C[C@@H]1C[C@H]1NCCc2cc(OC)c(OC)cc21`, the T/C runs as follows: (dose: 2.0 mg/kg/injection, schedule: Q01DX005 (ip), vehicle: Klucel (hydroxypropylcellulose) (HPC)) 113 % of control and 99 % of control; (dose: 4.0 mg/kg/injection, schedule: Q01DX005 (ip), vehicle: Klucel (hydroxypropylcellulose) (HPC)) 94 % of control and 100 % of control; (dose: 8.0 mg/kg/injection, schedule: Q01DX005 (ip), vehicle: Klucel (hydroxypropylcellulose) (HPC)) 119 % of control and 100 % of control.

As to `CS(=O)(=O)CS(=O)(=O)OCCCl`, the T/C reads like this: (dose: 6.25 mg/kg/injection, schedule: Q01DX009 (ip), vehicle: saline) 110 % of control; under setting [1], 114 % of control; under setting [2], 164 % of control; under setting [3], 203 % of control.

As for `CC1(C)N=C(N)N=C(N)N1c1ccc(OCC(=O)Nc2ccc(S(=O)(=O)F)cc2)c(Cl)c1`, the T/C runs as follows: (dose: 50.0 mg/kg/injection, schedule: Q04DX003 (ip), vehicle: saline) 111 % of control; (dose: 100.0 mg/kg/injection, schedule: Q04DX003 (ip), vehicle: saline) 100 % of control; (dose: 200.0 mg/kg/injection, schedule: Q04DX003 (ip), vehicle: saline) 111 % of control.

As to `CN(C)CC(=O)c1ccc(O)c(O)c1`, the T/C was 103 % of control (dose: 100.0 mg/kg/injection, schedule: Q01DX005 (ip), vehicle: saline); 93 % of control (dose: 100.0 mg/kg/injection, schedule: Q01DX005 (ip), vehicle: suspension in saline); 108 % of control (dose: 200.0 mg/kg/injection, schedule: Q01DX005 (ip), vehicle: saline); 104 % of control (dose: 200.0 mg/kg/injection, schedule: Q01DX005 (ip), vehicle: suspension in saline); 104 % of control (dose: 400.0 mg/kg/injection, schedule: Q01DX005 (ip), vehicle: saline); 107 % of control (dose: 400.0 mg/kg/injection, schedule: Q01DX005 (ip), vehicle: suspension in saline).

Turning to `CC(=O)O[C@]1(C(C)=O)CC[C@H]2[C@@H]3C[C@H](C)C4=CC(=O)CC[C@]4(C)[C@H]3CC[C@@]21C`, the T/C by setting is: (dose: 8.0 mg/kg/injection, schedule: Q01DX009 (ip), vehicle: Klucel (hydroxypropylcellulose) (HPC)) 92 % of control and 104 % of control; (dose: 16.0 mg/kg/injection, schedule: Q01DX009 (ip), vehicle: Klucel (hydroxypropylcellulose) (HPC)) 100 % of control and 102 % of control; (dose: 32.0 mg/kg/injection, schedule: Q01DX009 (ip), vehicle: Klucel (hydroxypropylcellulose) (HPC)) 93 % of control and 103 % of control; (dose: 64.0 mg/kg/injection, schedule: Q01DX009 (ip), vehicle: Klucel (hydroxypropylcellulose) (HPC)) 90 % of control and 99 % of control; (dose: 128.0 mg/kg/injection, schedule: Q01DX009 (ip), vehicle: Klucel (hydroxypropylcellulose) (HPC)) 90 % of control and 101 % of control; (dose: 256.0 mg/kg/injection, schedule: Q01DX009 (ip), vehicle: Klucel (hydroxypropylcellulose) (HPC)) 96 % of control and 103 % of control.

As to `CCCCCCCC/C=C/CCCCCCCC(=O)Nc1ccn(C2OC(CO)C(O)C2O)c(=O)n1` (centres undefined), the T/C is 155 % of control under setting [1], 197 % of control under setting [2] and 262 % of control under setting [3].

For the compound `CN(CO)c1nc(N(C)CO)nc(N(C)CO)n1`, the T/C was 98 % of control (dose: 3.12 mg/kg/injection, schedule: Q01DX009 (ip), vehicle: saline with Tween-80); 106 % of control (dose: 6.25 mg/kg/injection, schedule: Q01DX009 (ip), vehicle: saline with Tween-80); 100 % of control and 101 % of control (dose: 12.5 mg/kg/injection, schedule: Q01DX009 (ip), vehicle: saline with Tween-80); 116 % of control and 104 % of control (dose: 25.0 mg/kg/injection, schedule: Q01DX009 (ip), vehicle: saline with Tween-80); 115 % of control and 93 % of control (dose: 50.0 mg/kg/injection, schedule: Q01DX009 (ip), vehicle: Klucel (hydroxypropylcellulose) (HPC)); 103 % of control and 106 % of control (dose: 50.0 mg/kg/injection, schedule: Q01DX009 (ip), vehicle: saline with Tween-80). Also, for the setting “dose: 100.0 mg/kg/injection, schedule: Q01DX009 (ip), vehicle: Klucel (hydroxypropylcellulose) (HPC)”, the T/C was 121 % of control and 112 % of control.

Take `CC1(C)N=C(N)N=C(N)N1c1ccc(OCC(=O)N2CCOCC2)c(Cl)c1`: the T/C was 88 % of control under setting [2], 111 % of control under setting [3] and 100 % of control under setting [4].

Regarding `COc1cc2c(c3c1c(=O)c1ccccc1n3C)C=CC(C)(C)O2`, the T/C (dose: 128.0 mg/kg/injection, schedule: Q01DX005 (ip), vehicle: Klucel (hydroxypropylcellulose) (HPC)) is 107 % of control; the T/C (dose: 256.0 mg/kg/injection, schedule: Q01DX005 (ip), vehicle: Klucel (hydroxypropylcellulose) (HPC)) was 112 % of control; the T/C (dose: 512.0 mg/kg/injection, schedule: Q01DX005 (ip), vehicle: Klucel (hydroxypropylcellulose) (HPC)) is 113 % of control.

For `CC(=O)N(C)c1ccc(Nc2cc(C)[nH]c3ccc4ncnc4c23)cc1`, the T/C (dose: 10.0 mg/kg/injection, schedule: Q01DX005 (ip), vehicle: saline) was 107 % of control; the T/C (dose: 20.0 mg/kg/injection, schedule: Q01DX005 (ip), vehicle: saline) is 106 % of control; the T/C (dose: 40.0 mg/kg/injection, schedule: Q01DX005 (ip), vehicle: saline) was 104 % of control.

As to `COc1cccc2c1C(=O)c1c(O)c3c(c(O)c1C2=O)C[C@@](O)(/C(C)=N/NC(=O)c1ccccc1)C[C@@H]3OC1CC(N)C(O)C(C)O1` (some centres undefined), the T/C was 111 % of control (dose: 1.0 mg/kg/injection, schedule: Q01DX009 (ip), vehicle: saline with Tween-80); 103 % of control and 106 % of control (dose: 1.0 mg/kg/injection, schedule: Q01DX009 (ip), vehicle: saline); 90 % of control and 108 % of control (dose: 2.0 mg/kg/injection, schedule: Q01DX009 (ip), vehicle: saline with Tween-80); 113 % of control and 106 % of control (dose: 2.0 mg/kg/injection, schedule: Q01DX009 (ip), vehicle: saline); 114 % of control and 116 % of control (dose: 4.0 mg/kg/injection, schedule: Q01DX009 (ip), vehicle: saline with Tween-80); 113 % of control and 111 % of control (dose: 4.0 mg/kg/injection, schedule: Q01DX009 (ip), vehicle: saline). Further, the T/C was 106 % of control and 111 % of control (dose: 8.0 mg/kg/injection, schedule: Q01DX009 (ip), vehicle: saline with Tween-80); 100 % of control and 103 % of control under setting [5]; 90 % of control and 94 % of control (dose: 16.0 mg/kg/injection, schedule: Q01DX009 (ip), vehicle: saline with Tween-80).

In the case of `CC1(C)N=C(N)N=C(N)N1c1ccc(OCCCNC(=O)Nc2cccc(S(=O)(=O)F)c2)c(Cl)c1`, the T/C under setting [2] was 105 % of control, the T/C under setting [3] is 111 % of control and the T/C under setting [4] was 100 % of control.

On to `CC1(C)N=C(N)N=C(N)N1c1ccc(CCCCc2ccc(Cl)c(S(=O)(=O)F)c2)c(Cl)c1`, for which the T/C is 105 % of control under setting [5]; 122 % of control (dose: 12.0 mg/kg/injection, schedule: Q01DX009 (ip), vehicle: saline); 116 % of control (dose: 18.0 mg/kg/injection, schedule: Q01DX009 (ip), vehicle: saline); 88 % of control (dose: 27.0 mg/kg/injection, schedule: Q01DX009 (ip), vehicle: saline).

As to `CC(=O)NNC(=O)c1ccccn1`, the T/C was 116 % of control and 100 % of control (dose: 100.0 mg/kg/injection, schedule: Q01DX005 (ip), vehicle: Klucel (hydroxypropylcellulose) (HPC)); 113 % of control and 100 % of control (dose: 200.0 mg/kg/injection, schedule: Q01DX005 (ip), vehicle: Klucel (hydroxypropylcellulose) (HPC)).

With `CO[C@H]1C[C@@H]2CC[C@@H](C)[C@@](O)(O2)C(=O)C(=O)N2CCCC[C@H]2C(=O)O[C@H]([C@H](C)C[C@@H]2CC[C@@H](O)[C@H](OC)C2)CC(=O)[C@H](C)C=C(C)[C@@H](O)[C@@H](OC)C(=O)[C@H](C)C[C@H](C)/C=C/C=C/C=C1C`, where the note is “dose: 400.0 mg/kg/injection, schedule: Q01DX009 (ip), vehicle: gum acacia”, the T/C was 107 % of control.

Take `N[C@@H](Cc1ccc(N(CCCl)CCCl)cc1)C(=O)O`: the T/C runs as follows: (dose: 0.25 mg/kg/injection, schedule: Q03HX008 (ip), vehicle: saline) 105 % of control; (dose: 0.5 mg/kg/injection, schedule: Q03HX008 (ip), vehicle: saline) 115 % of control.

Take `Nc1ncnc2c1ncn2C1OC(COP(=O)(O)O)C(O)C1O` (centres undefined): the T/C under setting [3] is 97 % of control; the T/C (dose: 1600.0 mg/kg/injection, schedule: Q01DX009 (ip), vehicle: saline) is 100 % of control and 104 % of control.

Values taken from PubChem BioAssay AID334 (DTP/NCI, 2004).
